Series [1] deals with T1, M3 receptor (carbachol-induced detrusor contraction) (Rattus norvegicus, UniProt P08483).
T1 construct: the whole bladder was immediately isolated to prepare detrusor strips in Krebs’ solution; from tissue; host or cells: bladder detrusor strips / bladder sections of SHR
As to the kind of experiment: Carbachol-induced bladder strip (detrusor) contraction, ex vivo organ bath. Format: cell-based, spontaneously hypertensive rats (SHRs). The conditions noted are these: for remaining activity at 100 µg/mL: 100 μg/ml; for inhibition at 100 µg/mL: read-out: inhibition rate at 100 μg/ml; for IC10 value / IC50: carbachol (10 μM)-induced detrusor contraction, Mean ± SEM, n = 3. As for the experimental part: SHRs were sacrificed with carbon dioxide, and the whole bladder was immediately isolated to prepare detrusor strips in Krebs’ solution. Then, the strips were placed in a PanLab organ bath (Harvard Apparatus, Holliston, Massachusetts, United States) full of bubbling Krebs’ solution at 37°C. After stimulation with high-potassium solution, the strips were washed with Krebs’ solution three times. When the strips were incubated in Krebs’ solution until the tension was set at about 1.5 g, 0.1% DMSO was added for a 10-min incubation as a control, and then the muscle strip was stimulated to shrink by adding muscarinic agonist carbachol (10 μM), which is used for determinization of M3 receptor function in the bladder strip ([Liang and Leung, 2012]). Between two stimulations, the strips were washed out and balanced for 15 min. The contraction force of the bladder strip was recorded. After the experiment, detrusor strips were collected, dried, and weighed for data normalization. Data were recorded and analyzed using LabChart software (version 8.0).
Detrusor strips were isolated from SHRs and placed in the organ bath as mentioned previously, and then inhibitory activities of different fractions at 100 μg/ml were tested under carbachol (10 μM)-stimulated detrusor contraction.

Series [2] is described as follows: Urine metabolites after oral Gegen water extract, quantified by UPLC-MS/MS. The conditions noted are these: spontaneously hypertensive rat (SHR), 3-week treatment, Mean ± SEM; for concentration at 2 h: 2 h after last dose of Gegen water extract 300 mg/kg p.o., n = 8, read-out: Content in urine, 2 h; for concentration at 4 h: 4 h after last dose of Gegen water extract 300 mg/kg p.o., n = 8, read-out: Content in urine, 4 h; for concentration at 6 h: 6 h after last dose of Gegen water extract 300 mg/kg p.o., n = 8, read-out: Content in urine, 6 h; for concentration at 8 h: 8 h after last dose of Gegen water extract 300 mg/kg p.o., n = 8, read-out: Content in urine, 8 h. The class given is in vivo, spontaneously hypertensive rats (SHRs). The method, then: Urine samples were collected into ice-cold 15-ml Falcon tubes every 2 h and up to a total of 8 h, and the tubes were cooled by ice to prevent bacteria proliferation and water evaporation during collection. […] The gradient profile was set as follows: 10-40% B from 0 to 11 min; and 40-80% B from 11 to 15 min. The parameters for mass spectrometry were as follows: capillary, 2.5 kV for negative mode; sampling cone, 34 V; source offset, 80 V; cone gas flow, 150 L/h; desolvation gas flow, 650 L/h; and desolvation temperature, 350°C. Samples were kept at 4°C in the sample manager, and the column was maintained at 40°C. […] The precision and accuracy of the quantitation were satisfied according to FDA Bioanalytical Method Validation Guidance for Industry. Total ion chromatograms including retention times and MRM masses are shown in Supplementary Figure S2.

Series [3] deals with T2, recombinant human M3 receptor (Homo sapiens, UniProt P20309).
T2 construct: Full-length recombinant human M3 muscarinic acetylcholine receptor membrane preparation was provided by Millipore Co; purchased Millipore Co. (Merck KGaA, Darmstadt, Germany)
Put plainly: Thermal shift assay with recombinant human M3 receptor protein. The conditions noted are these: for binding to the human M3 receptor protein (verdict in words): thermal shift; for Tm value of the human M3 receptor protein: compound at 100 μg/ml, control (1% DMSO) 64.17 ± 0.37°C, n = 3. The class given is binding. The method, then: A thermal shift assay was performed to measure the binding of ligands to a recombinant human M3 receptor as modified from the previous study ([Huynh and Partch, 2015]). Briefly, after optimization of protein and dye concentrations, the M3 receptor protein (0.025 mg/ml) was incubated with different concentrations of tested compounds (0–100 μg/ml in 1% DMSO) in an 18 μl volume of ice-cold PBS for 2 h. Then, SYPRO Orange protein stain (2 μl; 8x as the final concentration diluted from original 5000x with PBS) was added, and the melt curve was detected using the Applied Biosystems QuantStudio5 real-time PCR system under the following conditions: ramp speed, standard; excitation wavelength at 470 nm (Reporter: FAM), and emission wavelength at 586 nm (Quencher: TAMRA) with no passive reference; an initial 2-min hold at 25°C (ramp rate, 1.6°C/s), ramping up in increments of 0.05°C/s to a final temperature of 99°C. Melt temperatures (Tm) were calculated using Protein Thermal Shift software v.1.4 (Applied Biosystems, Thermo, United States). The change in melt temperature (ΔTm) was equal to the Tm of control (1% DMSO) subtracted from the Tm of the tested compound. ΔTm higher than 2°C was considered a positive interaction between the ligand and receptor protein ([Huynh and Partch, 2015]).

Another series addresses BSA (Bos taurus, UniProt P02769). As to the kind of experiment: Thermal shift control in PBS containing BSA and glycerin. Format: binding. The conditions noted are these: 100 μg/ml; no M3 receptor protein; read-out: ΔTm in PBS solution containing BSA and glycerin.
For series [4], the target named is T1, M3 receptor (carbachol-induced detrusor contraction). As to the kind of experiment: Carbachol-induced bladder strip (detrusor) contraction, ex vivo organ bath. Format: cell-based, spontaneously hypertensive rats (SHRs). The conditions noted are these: read-out: inhibition at 12.5 μg/ml.
For series [5] the following is noted: cited from earlier work.
Where [6] appears, read: pure compounds at 100 μg/ml, carbachol 10 μM.

For orientation: IC50 means the point on the concentration scale where inhibition reaches its midpoint. Lower therefore signals greater potency in that assay. Usually ΔTm stands for the change in melting temperature against a reference sample.

≈ marks a conversion by molar mass, not a printed value. Read-outs that look alike come from different tables or passages of the source.

T1 sequence (P08483 whole entry): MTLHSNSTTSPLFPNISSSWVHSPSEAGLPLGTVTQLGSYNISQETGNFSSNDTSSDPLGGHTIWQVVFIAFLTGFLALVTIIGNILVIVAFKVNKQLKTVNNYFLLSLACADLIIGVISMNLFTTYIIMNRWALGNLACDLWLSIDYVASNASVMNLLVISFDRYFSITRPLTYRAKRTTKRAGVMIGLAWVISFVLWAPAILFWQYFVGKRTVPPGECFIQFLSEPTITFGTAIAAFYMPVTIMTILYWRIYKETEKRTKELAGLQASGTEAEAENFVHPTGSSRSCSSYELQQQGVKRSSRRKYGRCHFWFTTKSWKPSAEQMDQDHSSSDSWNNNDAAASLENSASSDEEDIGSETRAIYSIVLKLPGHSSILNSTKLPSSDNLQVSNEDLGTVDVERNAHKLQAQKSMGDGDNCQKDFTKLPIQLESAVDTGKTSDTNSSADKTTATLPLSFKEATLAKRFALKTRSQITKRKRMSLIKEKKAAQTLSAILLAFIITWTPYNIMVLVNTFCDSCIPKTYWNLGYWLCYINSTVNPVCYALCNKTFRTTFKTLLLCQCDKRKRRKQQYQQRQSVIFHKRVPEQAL
T2 sequence (P20309 whole entry): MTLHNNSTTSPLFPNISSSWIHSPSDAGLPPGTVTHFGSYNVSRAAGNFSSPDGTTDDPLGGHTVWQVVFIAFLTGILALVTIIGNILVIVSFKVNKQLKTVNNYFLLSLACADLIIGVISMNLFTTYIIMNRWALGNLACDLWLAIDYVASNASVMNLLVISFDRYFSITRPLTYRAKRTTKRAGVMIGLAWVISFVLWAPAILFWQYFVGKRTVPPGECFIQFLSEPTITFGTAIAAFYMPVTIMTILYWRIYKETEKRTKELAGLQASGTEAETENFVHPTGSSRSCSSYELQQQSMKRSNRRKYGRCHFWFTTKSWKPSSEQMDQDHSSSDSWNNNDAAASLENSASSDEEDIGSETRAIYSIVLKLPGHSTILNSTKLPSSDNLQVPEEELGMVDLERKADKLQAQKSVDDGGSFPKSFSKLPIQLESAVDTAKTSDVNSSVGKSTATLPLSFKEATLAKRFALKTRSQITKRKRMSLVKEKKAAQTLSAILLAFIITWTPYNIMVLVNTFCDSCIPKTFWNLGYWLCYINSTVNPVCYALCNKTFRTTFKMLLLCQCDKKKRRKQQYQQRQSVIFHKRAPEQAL
BSA, sequence (P02769 25-607): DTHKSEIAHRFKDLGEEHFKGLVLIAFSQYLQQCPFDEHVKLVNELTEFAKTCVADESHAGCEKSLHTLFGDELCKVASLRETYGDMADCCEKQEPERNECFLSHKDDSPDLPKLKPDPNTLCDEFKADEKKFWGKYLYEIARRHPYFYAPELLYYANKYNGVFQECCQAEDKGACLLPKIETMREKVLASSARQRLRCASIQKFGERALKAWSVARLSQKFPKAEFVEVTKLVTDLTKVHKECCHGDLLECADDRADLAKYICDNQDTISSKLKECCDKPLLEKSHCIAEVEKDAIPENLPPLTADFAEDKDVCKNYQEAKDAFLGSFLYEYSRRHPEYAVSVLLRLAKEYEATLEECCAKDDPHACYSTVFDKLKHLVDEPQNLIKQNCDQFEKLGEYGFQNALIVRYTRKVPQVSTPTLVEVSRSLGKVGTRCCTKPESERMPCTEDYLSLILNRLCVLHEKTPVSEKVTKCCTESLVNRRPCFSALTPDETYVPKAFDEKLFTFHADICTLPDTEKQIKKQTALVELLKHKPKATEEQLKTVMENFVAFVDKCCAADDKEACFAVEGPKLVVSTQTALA

On to `O=c1c(-c2ccc(O)c(O)c2)coc2c([C@@H]3O[C@H](CO)[C@@H](O)[C@H](O)[C@H]3O)c(O)ccc12` [3′-Hydroxypuerarin, 3′-hydroxypuerarin], for which the remaining activity at 100 µg/mL in series [1] (carbachol 10 μM) turned out to be 82.3 ± 1.8%. In series [1] (setting [6]), the inhibition at 100 µg/mL was 17.8 ± 1.75%.
In series [1], `COc1ccc(-c2coc3cc(O)cc(O)c3c2=O)cc1` [Biochanin A, Biochanin A (genistein 4′-methyl ether)] gave an IC10 value of 34.94 ± 6.75 µg/mL (≈ 123 µM) and an IC50 of 201 µM. Moreover, in series [2] (urine, oral), the concentration at 2 h amounted to 26 ± 7 ng/mL, the concentration at 4 h amounted to 85 ± 57 ng/mL, the concentration at 6 h was found to be 30 ± 14 ng/mL and the concentration at 8 h is 28 ± 5 ng/mL.
In series [1], `O=c1c(-c2ccc(O)cc2)coc2cc(O)ccc12` [Daidzein, daidzein] gave an IC10 value of 8.15 ± 1.85 µg/mL (≈ 32.1 µM) and an IC50 of 158 µM. In series [2] (urine, oral), the concentration at 2 h was 4400 ± 1000 ng/mL, the concentration at 4 h is 15900 ± 9300 ng/mL, the concentration at 6 h stood at 8130 ± 2660 ng/mL and the concentration at 8 h was 14400 ± 5140 ng/mL. Besides, in series [3] (100 μg/ml, against 1% DMSO, ΔTm higher than 2°C = positive interaction), the ΔTm at 100 µg/mL turned out to be 2.12 °C. Besides, the “binding to the human M3 receptor protein (verdict in words)” value in series [3] (100 μg/ml) was “positively bound”. The EC50 in series [3] (3.125–100 μg/ml, at 65.3°C, read-out: EC50 of concentration-dependent increase of Tm (converted)) was 62.1 µM. Further, the “Tm value of the human M3 receptor protein” value in series [3] was found to be 66.29 ± 0.38 °C. The ΔTm at 100 µg/mL at BSA was approximately 0.58 °C. The inhibition at 12.5 µg/mL in series [4] amounted to 15%. Moreover, the “plasma AUC” value in series [5] (rat, in vivo, po) was 4·4 μg·h/mL.
As for `O=c1c(-c2ccc(O)cc2)coc2cc(O)cc(O)c12` [Genistein, Genistein (5-hydroxyl daidzein)], in series [2] (in vivo), the concentration at 2 h turned out to be 517 ± 138 ng/mL, the concentration at 4 h worked out at 1410 ± 1000 ng/mL, the concentration at 6 h is 327 ± 98 ng/mL and the concentration at 8 h was 342 ± 35 ng/mL.
In the case of `O=c1c(-c2ccc(O)cc2)coc2cc(O[C@@H]3O[C@H](CO)[C@@H](O)[C@H](O)[C@H]3O)cc(O)c12` [Genistin, genistin (genistein-7-O-glucoside)], in series [1], the IC50 was more than 231 µM.
In turn, `O=c1c(-c2ccc(O)cc2)coc2c([C@@H]3O[C@H](CO[C@@H]4OC[C@](O)(CO)[C@H]4O)[C@@H](O)[C@H](O)[C@H]3O)c(O)ccc12` [Puerarin apioside, puerarin apioside] yielded a remaining activity at 100 µg/mL in series [1] (carbachol 10 μM) of 89.3 ± 9.2%. Further, in series [1] (setting [6]), the inhibition at 100 µg/mL worked out at 10.7 ± 9.24%.
For the compound `O=c1c(-c2ccc(O)cc2)coc2c([C@@H]3O[C@H](CO)[C@@H](O)[C@H](O)[C@H]3O)c(O)ccc12` [Puerarin, puerarin (daidzein-8-C-glucoside)], in series [1], the IC10 value stood at 2.90 ± 2.11 µg/mL (≈ 6.96 µM) and the inhibition at 100 µg/mL was 33.8 ± 3.05%. For the same compound, in series [2] (urine, oral), the concentration at 2 h turned out to be 6380 ± 897 ng/mL, the concentration at 4 h worked out at 10300 ± 2480 ng/mL, the concentration at 6 h was found to be 3310 ± 325 ng/mL and the concentration at 8 h came to 2210 ± 164 ng/mL. Moreover, in series [3] (100 μg/ml), the “binding to the human M3 receptor protein (verdict in words)” value was “very weak binding”. In series [3], the “Tm value of the human M3 receptor protein” value amounted to 64.92 ± 0.03 °C. Besides, in series [5] (after oral administration of Gegen water extract, ref Wei et al., 2020), the “plasma AUC” value is 15.1 µg·h/mL.

These data come from paper PMC9576955, “Daidzein is the in vivo active compound of Puerariae Lobatae Radix water extract for muscarinic receptor-3 inhibition against overactive bladder” (Frontiers in Pharmacology, 2022).
